From patent EP4725957A1, “GROUP OF CYCLIC ALKALINE LIPOPEPTIDE COMPOUNDS, AND PREPARATION METHOD THEREFOR AND USE THEREOF” (Institute of Medicinal Biotechnology, Chinese Academy of …, priority 2023, dated 2024)
≈ marks a conversion by molar mass, not a printed value. Bridge positions count the residues as written; N and C are the ends. Square brackets hold non-standard residues; d marks the D form. Peptide text beside a SMILES is read from it. * marks the point of attachment. Heptanoyl(6-Me) = CC(C)CCCCC(=O)*; dDab = NCC[C@@H](N)C(=O)O; Heptanoyl = CCCCCCC(=O)*; Octanoyl = CCCCCCCC(=O)*; Orn = NCCC[C@H](N)C(=O)O; dDap = NC[C@@H](N)C(=O)O; Dab = NCC[C@H](N)C(=O)O; Dap = NC[C@H](N)C(=O)O

Tests used:
Format in all cases: cell-based
[1] = system: Escherichia coli ATCC BAA-2340 (KPC); conditions: ATCC BAA-2340
Summary of the method: (§1)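 Minimal inhibitory concentrations are measured following CLSI microdilution guidance in MH broth. Test concentrations run from 64 down to 0.03 mg/L in doubling steps, with a final bacterial load of (2-4) × 10^5 CFU/mL and 16-20 h incubation at 35-37°C.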

[2] = system: Acinetobacter baumannii NCTC 13304 (OXA-27); conditions: NCTC 13304
Summary of the method: as §1

[3] = system: Escherichia coli ATCC BAA-2523; conditions: ATCC BAA-2523
Summary of the method: as §1

[4] = system: Pseudomonas aeruginosa PAE19-3; conditions: PAE19-3
Summary of the method: as §1

[5] = system: Klebsiella pneumoniae ATCC BAA-1705 (KPC); conditions: ATCC BAA-1705
Summary of the method: as §1

[6] = system: Klebsiella pneumoniae KPN+19-15; conditions: KPN+19-15
Summary of the method: as §1

[7] = system: Pseudomonas aeruginosa ATCC 27853; conditions: ATCC 27853
Summary of the method: as §1

[8] = system: Acinetobacter baumannii ABA19-1; conditions: ABA19-1
Summary of the method: as §1

[9] = Nephrotoxicity assay: in vitro cytotoxicity of HK-2 cells by CCK-8 assay; conditions: human, HK-2 cells (human renal), 72 h incubation with drug-containing medium
Summary of the method: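 HK-2 human renal cells in RPMI-1640 with 10% FBS were exposed to compounds at final 12.5–500 µg/mL for 72 h, then CCK-8 for 3 h and OD450 read. Viability was normalised to drug-free wells; IC50 came from logarithmic regression over three repeats, with polymyxin B as positive drug.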

Compound	MIC [1] [µg/mL]	MIC [2] [µg/mL]	MIC [3] [µg/mL]	MIC [4] [µg/mL]	MIC [5] [µg/mL]	MIC [6] [µg/mL]	MIC [7] [µg/mL]	MIC [8] [µg/mL]	IC50 at 72 h [9] [µg/mL]
CC(C)CCCCC(=O)N[C@@H](CCN)C(=O)N[C@H](C(=O)N[C@H](CN)C(=O)N[C@H]1CCNC(=O)[C@H]([C@@H](C)O)NC(=O)[C@H](CCN)NC(=O)[C@H](CCN)NC(=O)[C@H](CC(C)C)NC(=O)[C@@H](Cc2ccccc2)NC(=O)[C@H](CCN)NC1=O)[C@@H](C)O [Compound 32, 6-methylheptanoyl-Dab-Thr-D-Dap-ring(4-10)[Dab-Dab-D-Phe-Leu-Dab-Dab-Thr]] ({Heptanoyl(6-Me)}-[Dab]T[dDap][Dab][Dab][dF]L[Dab][Dab]T; lactam 4-C)	0.03 (≈ 0.0255 µM)	0.03 (≈ 0.0255 µM)	0.03 (≈ 0.0255 µM)	0.25 (≈ 0.213 µM)	0.03 (≈ 0.0255 µM)	0.03 (≈ 0.0255 µM)	0.03 (≈ 0.0255 µM)	0.03 (≈ 0.0255 µM)	325 ± 11.7 (≈ 277 µM)
CCCCCCCC(=O)N[C@@H](CCN)C(=O)N[C@H](C(=O)N[C@H](CO)C(=O)N[C@H]1CCNC(=O)[C@H]([C@@H](C)O)NC(=O)[C@H](CCCN)NC(=O)[C@H](CCN)NC(=O)[C@H]([C@@H](C)O)NC(=O)[C@@H](Cc2ccccc2)NC(=O)[C@H](CCN)NC1=O)[C@@H](C)O [Compound 88, Octanoyl-Dab-Thr-D-Ser-ring(4-10)[Dab-Dab-D-Phe-Thr-Dab-Orn-Thr]] (Octanoyl-[Dab]T[dS][Dab][Dab][dF]T[Dab][Orn]T; lactam 4-C)	0.03 (≈ 0.0255 µM)	≤0.03	0.03 (≈ 0.0255 µM)	64 (≈ 54.3 µM)	0.25 (≈ 0.212 µM)	0.5 (≈ 0.424 µM)	>64	0.06 (≈ 0.0509 µM)	> 500
CCCCCCC(=O)N[C@@H](CN)C(=O)N[C@H](C(=O)N[C@H](CCN)C(=O)N[C@H]1CCNC(=O)[C@H]([C@@H](C)O)NC(=O)[C@H](CCN)NC(=O)[C@H](CCN)NC(=O)[C@H](CC(C)C)NC(=O)[C@@H](Cc2ccccc2)NC(=O)[C@H](CCN)NC1=O)[C@@H](C)O [Compound 94, Heptanoyl-Dap-Thr-D-Dab-ring(4-10)[Dab-Dab-D-Phe-Leu-Dab-Dab-Thr]] (Heptanoyl-[Dap]T[dDab][Dab][Dab][dF]L[Dab][Dab]T; lactam 4-C)	0.06 (≈ 0.0517 µM)	0.03 (≈ 0.0258 µM)	0.06 (≈ 0.0517 µM)	1 (≈ 0.861 µM)	0.03 (≈ 0.0258 µM)	0.03 (≈ 0.0258 µM)	1 (≈ 0.861 µM)	0.03 (≈ 0.0258 µM)	298 ± 30.7 (≈ 257 µM)
CC(C)CCCCC(=O)N[C@@H](CN)C(=O)N[C@H](C(=O)N[C@H](CCN)C(=O)N[C@H]1CCNC(=O)[C@H]([C@@H](C)O)NC(=O)[C@H](CCN)NC(=O)[C@H](CCN)NC(=O)[C@H](CC(C)C)NC(=O)[C@@H](CC(C)C)NC(=O)[C@H](CCN)NC1=O)[C@@H](C)O [Compound 97, 6-methylheptanoyl-Dap-Thr-D-Dab-ring(4-10)[Dab-Dab-D-Leu-Leu-Dab-Dab-Thr]] ({Heptanoyl(6-Me)}-[Dap]T[dDab][Dab][Dab][dL]L[Dab][Dab]T; lactam 4-C)	0.03 (≈ 0.0263 µM)	0.03 (≈ 0.0263 µM)	0.03 (≈ 0.0263 µM)	0.5 (≈ 0.438 µM)	0.03 (≈ 0.0263 µM)	0.03 (≈ 0.0263 µM)	0.5 (≈ 0.438 µM)	0.03 (≈ 0.0263 µM)	217 ± 11.2 (≈ 190 µM)
CCCCCCCC(=O)N[C@@H](CN)C(=O)N[C@H](C(=O)N[C@H](CCN)C(=O)N[C@H]1CCNC(=O)[C@H]([C@@H](C)O)NC(=O)[C@H](CCN)NC(=O)[C@H](CCN)NC(=O)[C@H](CC(C)C)NC(=O)[C@@H](Cc2ccccc2)NC(=O)[C@H](CCN)NC1=O)[C@@H](C)O [Compound 93, Octanoyl-Dap-Thr-D-Dab-ring(4-10)[Dab-Dab-D-Phe-Leu-Dab-Dab-Thr]] (Octanoyl-[Dap]T[dDab][Dab][Dab][dF]L[Dab][Dab]T; lactam 4-C)	0.03 (≈ 0.0255 µM)	0.03 (≈ 0.0255 µM)	0.03 (≈ 0.0255 µM)	1 (≈ 0.851 µM)	0.03 (≈ 0.0255 µM)	0.03 (≈ 0.0255 µM)	1 (≈ 0.851 µM)	0.03 (≈ 0.0255 µM)	239 ± 19.1 (≈ 204 µM)
